The target of one series is T1, lipases, preferably HSL (Rattus norvegicus, UniProt P15304).
T1 sequence (P15304 1-768 isoform P15304-2): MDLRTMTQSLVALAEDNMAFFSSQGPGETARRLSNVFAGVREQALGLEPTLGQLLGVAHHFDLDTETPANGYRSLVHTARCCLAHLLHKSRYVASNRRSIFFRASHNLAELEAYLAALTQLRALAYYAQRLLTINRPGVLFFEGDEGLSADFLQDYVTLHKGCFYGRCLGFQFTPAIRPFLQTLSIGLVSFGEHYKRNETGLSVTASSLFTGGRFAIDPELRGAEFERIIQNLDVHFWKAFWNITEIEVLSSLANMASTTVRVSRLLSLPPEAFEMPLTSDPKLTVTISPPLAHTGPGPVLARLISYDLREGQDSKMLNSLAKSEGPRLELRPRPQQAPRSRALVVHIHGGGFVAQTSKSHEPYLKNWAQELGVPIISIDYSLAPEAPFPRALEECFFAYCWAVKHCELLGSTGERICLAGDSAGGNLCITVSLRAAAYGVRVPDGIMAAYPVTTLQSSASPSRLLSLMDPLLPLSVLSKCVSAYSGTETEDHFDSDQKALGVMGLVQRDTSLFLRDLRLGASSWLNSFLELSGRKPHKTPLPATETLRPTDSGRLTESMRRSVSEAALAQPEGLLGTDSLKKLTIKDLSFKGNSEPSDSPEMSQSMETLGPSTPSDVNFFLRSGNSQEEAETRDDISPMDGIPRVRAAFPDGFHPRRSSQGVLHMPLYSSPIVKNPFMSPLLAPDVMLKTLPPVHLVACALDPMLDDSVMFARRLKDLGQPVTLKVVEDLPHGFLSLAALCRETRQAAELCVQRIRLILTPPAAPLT
The series can be described thus: Synthesized NBD-acylglycerides as substrates of lipases. It counts as biochemical.

The target in another series is T2, HSL (Rattus norvegicus, UniProt P15304).
T2 construct: The partially purified HSL can be stored at −70° C. for 4 to 6 weeks; from tissue; host or cells: rat epididymal fat cells (male Wistar rats)
T2 sequence (P15304 1-768 isoform P15304-2): T1 sequence (P15304 1-768 isoform P15304-2)
The series can be described thus: Indirect NAG assay (extinction increase at 481 nm). It counts as biochemical. The note with it: for Absorption at 481 nm: HSL 20 μg, 60 min, NAG 0.05 mg/ml. The procedure:
A typical reaction is carried out at 30° C. for 60 min, for example in 1.5 ml Eppendorf vessels or 96-hole plates. […] 180 μl of the substrate solution (20 μg/ml of phosphatidylcholine, 10 μg/ml of phosphatidylinositol, 50 μg/ml of NAG in assay buffer) are added. After a preincubation for 15 min at 30° C., 20 μl of HSL in assay buffer are pipetted in and the extinction is immediately measured (see above) at 481 nm in a cuvette photometer (0.5 ml cuvette) or microtiter plate reader. After a certain incubation time, which is variable and depends on the chosen enzyme concentration and can be between 2 and 240 minutes, in this case incubation at 30° C. for 60 min, the extinction is measured again. The increase in the extinction in the yellow region, in this case at 481 nm, is a measure of the enzyme activity.
Isolated rat fat cells are obtained from epididymal fatty tissue from untreated male rats (Wistar, 220-250 g) by collagenase treatment according to published processes. The fat cells from 10 rats are washed three times by flotation with 50 ml each of homogenization buffer ([…], pH 7.4, 0.25 M sucrose, 1 mM ethylenediamine-N,N,N′,N′-tetraacetic acid (EDTA), 1 mM dithiothreitol (DTT), 10 μg/ml of leupeptin, 10 μg/ml of antipain, 20 μg/ml of pepstatin) and finally taken up in 10 ml of homogenization buffer. The fat cells are homogenized in a Teflon-in-glass homogenizer (Braun-Melsungen) by 10 strokes at 1500 rpm and 15° C. The homogenizate is centrifuged (Sorvall SM24 tubes, 5000 rpm, 10 min, 4° C.). The […] between the overlying fatty layer and the pellet is removed and the centrifugation is repeated. The […] resulting from this is centrifuged again (Sorvall SM24 tubes, 20,000 rpm, 45 min, 4° C.). […] After incubation for 60 min at 4° C. (shake at intervals of 15 min), the batch is centrifuged (Sorvall SM24 tubes, 3000 rpm, 10 min, 4° C.). The supernatant is brought to pH 5.2 by addition of glacial acetic acid and incubated at 4° C. for 30 min. […] The suspension is dialyzed overnight at 4° C. against 25 mM TRIS/HCl, pH 7.4, 50% glycerol, 1 mM DTT, and 10 μg/ml of leupeptin, pepstatin, and antipain and then applied to a hydroxylapatite column (0.1 g per 1 ml of suspension, equilibrated with 10 mM potassium phosphate, pH 7.0, 30% glycerol, 1 mM DTT). The column is washed with four volumes of equilibration buffer at a flow rate of 20 to 30 ml/h. The HSL is eluted with a volume of equilibration buffer which contains 0.5 M potassium phosphate, then dialyzed (see above) and concentrated 5 to 10 times by ultrafiltration (Amicon Diaflo PM 10 filter) at 4° C. The partially purified HSL can be stored at −70° C. for 4 to 6 weeks.
6 mg of phosphatidylcholine and 6 mg of phosphatidylinositol are dissolved in 1 ml of chloroform each. 10 mg of NAG are dissolved in 1 ml of chloroform. […] The chloroform (225 μl total volume) is completely removed by overblowing with a stream of N2. The dried substrate can be stored at 4° C. for up to three days. For the preparation of the phospholipid vesicles/micelles having intercalated NAG (on the test day), the dried substrate is taken up in 20 ml of assay buffer (25 mM TRIS/HCl, pH 7.4; 150 mM NaCl) and two ultrasonic treatments with an ultrasonic probe (Branson Sonifier type 11, standard microtip): 1st treatment setting 2, 2×1 min, in between in each case 1 min on ice; 2nd treatment setting 4, 2×1 min, in between in each case 1 min on ice. […] Before use as a substrate (within the next 2 h), the solution is additionally incubated on ice for 15 min.
The assay is carried out at 30° C. for 60 min in 1.5 ml Eppendorf vessels or 96-hole plates.

Series [1] is described as follows: Substrate stability towards detergents and solvents (extinction at 550 nm). Type of series: physicochemical. The note with it: for Absorption at 550 nm: NAG 0.05 mg/ml, 37° C., 180 min.

Read-outs that look alike come from different tables or passages of the source.

For “2-Hydroxy-3-[12-(7-nitrobenzo[1,2,5]oxadiazol-4-ylamino)-odecanoyloxy]propyl hexadecanoate [Compound (6)]”, the “Activity as substrate of lipases” value on lipases, preferably HSL is “decrease in activity”.
As for `CN(C)C=O` [DMF, N,N-Dimethylformamide], the “Effect on the HSL activity” value on HSL is recorded as “significant loss in activity”. The “NAG released from the phospholipid/vesicle structures” value in series [1] (1% agent) is on record as “over 80%”. The “Absorption at 550 nm” value in series [1] (agent 0.05 %) worked out at 3121 ± 294 arb. units; in series [1] (agent 0.1 %) it was 2655 ± 308 arb. units; in series [1] (agent 0.2 %) it was 1952 ± 299 arb. units; in series [1] (agent 0.5 %) it was 1234 ± 234 arb. units; in series [1] (agent 1 %), 654 ± 112 arb. units; in series [1] (agent 2 %), 251 ± 82 arb. units. Further, the “Absorption at 550 nm” value came to 105 ± 42 arb. units in series [1] (agent 5 %) and 38 ± 10 arb. units in series [1] (agent 10 %).
Consider `C[S+](C)[O-]` [DMSO, Dimethyl sulfoxide], for which, at HSL (0.5% agent), the “Reduction of the enzyme activity” value came out at 10%. Besides, the “Decrease in the enzyme activity (arithmetically)” value at HSL (1% agent, corrected for substrate dissolution) is 20%. Further, the “Absorption at 481 nm” value on HSL (agent 0.05 %) is 3423 ± 286 arb. units; on HSL (agent 0.1 %), 3320 ± 319 arb. units; at HSL (agent 0.2 %), 3301 ± 276 arb. units; on HSL (agent 0.5 %), 3199 ± 235 arb. units; on HSL (agent 1 %) it was 3156 ± 196 arb. units; at HSL (agent 2 %), 1488 ± 213 arb. units. Further, the “Absorption at 481 nm” value is 945 ± 169 arb. units at HSL (agent 5 %) and 272 ± 42 arb. units at HSL (agent 10 %). Besides, the “Reduction of the amount of released NBD-FA” value on HSL (up to 1% agent) is “approximately 10%”. In addition, in series [1] (1% agent), the “Decrease of the extinction (amount of substrate)” value was 10%. The “Absorption at 550 nm” value in series [1] (agent 0.05 %) is on record as 3003 ± 259 arb. units; in series [1] (agent 0.1 %), 3199 ± 302 arb. units; in series [1] (agent 0.2 %), 2984 ± 273 arb. units; in series [1] (agent 0.5 %) it was 3055 ± 289 arb. units; in series [1] (agent 1 %) it was 2845 ± 254 arb. units; in series [1] (agent 2 %) it was 2317 ± 266 arb. units. For the same molecule, the “Absorption at 550 nm” value came to 1432 ± 187 arb. units in series [1] (agent 5 %) and 372 ± 51 arb. units in series [1] (agent 10 %).
Take `CCO` [Ethanol]: the “Absorption at 481 nm” value came out at 3776 ± 253 arb. units on HSL (agent 0.05 %); 4093 ± 387 arb. units at HSL (agent 0.1 %); 4894 ± 325 arb. units on HSL (agent 0.2 %); 4231 ± 296 arb. units on HSL (agent 0.5 %); 3541 ± 294 arb. units on HSL (agent 1 %); 2143 ± 215 arb. units at HSL (agent 2 %). In addition, the “Absorption at 481 nm” value amounted to 1327 ± 143 arb. units at HSL (agent 5 %) and 423 ± 55 arb. units at HSL (agent 10 %). Further, the “Effect on the HSL activity” value on HSL (between 0.1 and 1% agent) is given as “increase in the HSL activity”. For the same molecule, the “Absorption at 550 nm” value in series [1] (agent 0.05 %) worked out at 3147 ± 288 arb. units; in series [1] (agent 0.1 %), 3056 ± 213 arb. units; in series [1] (agent 0.2 %) it was 3097 ± 253 arb. units; in series [1] (agent 0.5 %), 2995 ± 231 arb. units; in series [1] (agent 1 %), 2834 ± 256 arb. units; in series [1] (agent 2 %) it was 2510 ± 194 arb. units. For the same molecule, the “Absorption at 550 nm” value in series [1] (agent 5 %) is listed as 1935 ± 163 arb. units; in series [1] (agent 10 %), 873 ± 103 arb. units.
Turning to `CO` [Methanol], the “Effect on the HSL activity” value at HSL is “increase in the HSL activity”. The “Absorption at 550 nm” value came out at 3056 ± 243 arb. units in series [1] (agent 0.05 %); 3102 ± 276 arb. units in series [1] (agent 0.1 %); 2945 ± 241 arb. units in series [1] (agent 0.2 %); 2683 ± 210 arb. units in series [1] (agent 0.5 %); 2534 ± 191 arb. units in series [1] (agent 1 %); 1985 ± 165 arb. units in series [1] (agent 2 %). The results for the “Absorption at 550 nm” value in series [1] (agent 5 %) and in series [1] (agent 10 %) were 1438 ± 121 arb. units and 475 ± 92 arb. units, respectively.
Regarding `CCCCCCCCCCCCOS(=O)(=O)[O-].[Na+]` [SDS, Sodium dodecyl sulfate], the “Absorption at 550 nm” value was found to be 3063 ± 288 arb. units in series [1] (agent 0.05 %); 2935 ± 254 arb. units in series [1] (agent 0.1 %); 2769 ± 275 arb. units in series [1] (agent 0.2 %); 2506 ± 301 arb. units in series [1] (agent 0.5 %); 2296 ± 252 arb. units in series [1] (agent 1 %); 1413 ± 178 arb. units in series [1] (agent 2 %). Further, the “Absorption at 550 nm” value in series [1] (agent 5 %) was 603 ± 89 arb. units; in series [1] (agent 10 %), 102 ± 12 arb. units.
With `CC(C)=O` [acetone], the “Effect on the HSL activity” value at HSL was “increase in the HSL activity”.
In the case of Triton ® X-100 [TX-100], the “Effect on the HSL activity” value at HSL was “increase in the HSL activity”. For the same molecule, the “Absorption at 550 nm” value amounted to 3166 ± 308 arb. units in series [1] (agent 0.05 %); 3247 ± 253 arb. units in series [1] (agent 0.1 %); 3119 ± 277 arb. units in series [1] (agent 0.2 %); 2954 ± 248 arb. units in series [1] (agent 0.5 %); 2154 ± 199 arb. units in series [1] (agent 1 %); 956 ± 101 arb. units in series [1] (agent 2 %). For the same molecule, the “Absorption at 550 nm” value in series [1] (agent 5 %) was found to be 489 ± 77 arb. units; in series [1] (agent 10 %), 167 ± 45 arb. units.
